In one data set the target is PDE10A (Homo sapiens, UniProt Q9Y233). In words: LabChip microfluidic mobility-shift assay, IC50 against PDE10A. The data set is classed as biochemical. As to conditions: eight concentrations 0.1 nM to 300 nM, duplicate. How it is done:
IC50 determination was assessed using LabChip® microfluid technology (PerkinElmer, Hopkinton, MA, United States) in line with the service-provider’s protocol. CPL500036 was tested at eight concentrations ranging from 0.1 nM to 300 nM. The assay was run on the EZ Reader™ II platform (Caliper Life Sciences, Hopkinton, MA, United States). After the incubation period, levels of the reaction products and remaining substrate were measured. Analyzed data were from duplicate measurement, and IC50 was determined using a variable slope with Prism 5 (GraphPad, San Diego, CA, United States).

The nature of data set [1]: Pharmacokinetics after oral gavage in dogs (plasma). The conditions noted are these: both sexes, Beagle, dog plasma, 1.5 mg/kg oral gavage, mean ± SD, n = 4. The data set is classed as in vivo. The method, then: (§1) The study was carried out in 40 male Wistar Han rats (∼10 weeks; Tri-City Academic Laboratory Animal Centre, Research and Services Centre, Medical University of Gdansk). Rats were fasted for 12 h (water was available at libitum) before administration and fed 4 h post-dose. Rats received CPL500036 (3 mg/kg per oral gavage). At each of eight time points (15 min, 30 min as well as 1 h, 2 h, 4 h, 7 h, 12 h, and 24 h), five rats were killed by exsanguination, and samples of blood and brain were harvested. Two male and two female Beagle dogs (10.5–13 months old, MediTox s.r.o., Konarovice, Czech Republic) received CPL500036 in a dose of 1.5 mg/kg per oral gavage. Blood was taken by venepuncture from v. cephalica antebrachii at twelve time points (0 min, 15 min, 30 min as well as 1 h, 2 h, 3 h, 4 h, 6 h, 8 h, 12 h, 24 h, and 48 h.
(§2) Blood was collected into tubes containing the anticoagulant K2EDTA and centrifuged (2,000 × g, 15 min, 4°C) to obtain plasma. Brain samples were homogenized in water. Plasma and brain homogenates were stored at −80°C until analyses. Acetonitrile (150 μl) spiked with internal standard (donepezil; MilliporeSigma) was added to 50 μl of each plasma homogenate or brain homogenate, respectively. The mixture was shaken vigorously for 2 min and then centrifuged (4,000 × g, 4 min, room temperature). Supernatants were injected into a high-performance liquid chromatography system (Infinity™ 1,260; Agilent Technologies, Santa Clara, CA, United States) with a Zorbax SB column ([…]; 1.8 μm; Agilent Technologies). The mobile phase was ammonium formate (20 mM, pH 3.0) and acetonitrile with 0.1% formic acid. The gradient chromatographic separation used a flow rate of 0.4 ml/min for 7.5 min at a nominal temperature of 30°C. Signal acquisition was undertaken for 5.5 min using of a triple quadrupole mass spectrometer (6,460 series; Agilent Technologies) with electrospray ionization (5500 V, 320°C). Multiple-reaction monitoring was applied to detect the following transitions of the m/z ratio: 342.0–220.9 and 342–235.9 for CPL500036; 380.5–362.9 and 380.5–243.5 for donepezil. The drug concentration was calculated from the ratio of the peak area response relative to the internal standard using a standard curve.

Data set [2] can be described thus: Pharmacokinetics after oral gavage in rats (plasma and brain). It counts as in vivo, Wistar Han rats. As to conditions: for AUC(0-t): read-out: AUC(0–24h). How it is done: as §1, §2
Another data set in a line: MTT cytotoxicity assay. The data set is classed as cell-based. The conditions noted are these: human, n = 3. How it is done:
The cytotoxicity of CPL500036 was evaluated in human non-small-cell lung cancer (NCI-H1299, ATCC® CRL-5803™), human hepatocellular carcinoma (Hep G2 [HEPG2], ATCC® HB-8065™) and human neuroblastoma (SH-SY5Y, ECACC, 94030304) cells using the 3-(4,5-dimethylthiazol-2-yl)-2,5-diphenyltetrazolium bromide (MTT) assay (Invitrogen, Carlsbad, CA, United States). Cells were seeded in an appropriate complete growth medium (following manufacturer recommendations) onto 96-well plates. After overnight incubation (37°C, 5% CO2) the medium was replaced with fresh medium (100 μl/well) containing the desired concentration of CPL500036 (8 nM–60 μM, diluent factor = 3), positive control or vehicle control (1% dimethyl sulfoxide (DMSO)) followed by incubation for 72 h (37°C, 5% CO2). Then, 25 μl of filtered (filter size = 0.22 μm) MTT solution (12 mM) in phosphate-buffered saline (PBS) was added to each well, including blank control (medium without cells) followed by incubation for 2 h (37°C, 5% CO2). After that, formazan crystals were dissolved in DMSO (100 μl/well). The absorbance was measured at 540 nm (A540, substrate wavelength) and 690 nm (A690, reference wavelength) using an automatic microplate reader (Multiskan™ GO; ThermoFisher Scientific). The metabolic activity of cells in the presence of vehicle control (1% DMSO) was considered to be 100%, and we calculated the difference between A540 and A690. IC50 was calculated using Prism 7.05.
On the technique in general: Tetrazolium dyes change colour on reduction, which living cells bring about.

The mark [3] stands for this setting: male, Wistar Han, rat brain, 3 mg/kg oral gavage, mean ± SD.
Setting [4] is: male, Wistar Han, rat plasma, 3 mg/kg oral gavage, mean ± SD.

SMILES strings stand for the structures. Some results are limits rather than exact numbers.

Chain of PDE10A (Q9Y233 whole entry, species assumed): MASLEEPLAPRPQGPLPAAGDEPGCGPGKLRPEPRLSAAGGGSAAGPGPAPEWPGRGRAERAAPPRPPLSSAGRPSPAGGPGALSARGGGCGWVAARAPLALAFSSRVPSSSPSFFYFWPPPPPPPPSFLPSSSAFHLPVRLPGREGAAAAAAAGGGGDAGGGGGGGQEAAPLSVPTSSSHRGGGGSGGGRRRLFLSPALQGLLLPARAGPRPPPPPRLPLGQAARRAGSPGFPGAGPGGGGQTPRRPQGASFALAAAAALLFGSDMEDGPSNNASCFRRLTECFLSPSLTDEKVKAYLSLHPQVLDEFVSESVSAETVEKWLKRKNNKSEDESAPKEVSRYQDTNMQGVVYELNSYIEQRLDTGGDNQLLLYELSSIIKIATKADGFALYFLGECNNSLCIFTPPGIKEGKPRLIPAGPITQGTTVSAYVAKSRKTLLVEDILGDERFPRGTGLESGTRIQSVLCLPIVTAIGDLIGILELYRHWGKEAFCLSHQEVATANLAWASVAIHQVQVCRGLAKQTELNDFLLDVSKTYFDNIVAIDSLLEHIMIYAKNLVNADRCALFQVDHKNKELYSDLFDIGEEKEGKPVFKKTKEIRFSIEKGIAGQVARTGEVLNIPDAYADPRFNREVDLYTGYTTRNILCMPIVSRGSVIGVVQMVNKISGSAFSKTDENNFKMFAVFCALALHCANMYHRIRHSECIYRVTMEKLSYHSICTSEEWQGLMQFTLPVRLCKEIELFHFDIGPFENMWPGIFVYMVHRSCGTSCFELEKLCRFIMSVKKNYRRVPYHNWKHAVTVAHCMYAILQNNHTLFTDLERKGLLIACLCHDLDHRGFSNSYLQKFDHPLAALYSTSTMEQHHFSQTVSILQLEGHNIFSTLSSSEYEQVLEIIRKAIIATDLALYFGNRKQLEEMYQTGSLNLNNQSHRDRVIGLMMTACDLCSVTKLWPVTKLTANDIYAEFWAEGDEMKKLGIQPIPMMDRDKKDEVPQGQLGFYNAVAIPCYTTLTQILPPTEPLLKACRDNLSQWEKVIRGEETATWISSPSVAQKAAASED

Take `Cc1ncc(C)n2nc(-c3ccn4cc(-c5ccccc5)nc4n3)nc12` [CPL500036, 7-[5,8-Dimethyl-(1,2,4)triazolo (1,5-a)pyrazin-2-yl]-2-phenylimidazo (1,2-a) pyrimidine]: the IC50 (commonly the midpoint of a concentration-inhibition curve) on PDE10A was 0.001 µM. For the same compound, the Cmax (commonly the maximum level reached in the sampled fluid or tissue) in data set [1] amounted to 98.3 ± 55.4 ng/mL; in data set [2] (setting [3]), 94.3 ± 28.5 ng/g; in data set [2] (setting [4]), 238 ± 98.1 ng/mL. For the same compound, the Tmax (usually the time from dosing to the highest level) amounted to 1.3 ± 0.5 h in data set [1], 6.8 ± 3.3 h in data set [2] (setting [3]) and 5.8 ± 1.6 h in data set [2] (setting [4]). In addition, the half-life (commonly how long it takes for the measured level to halve) is 2.1 ± 1.7 h in data set [1] and 6.4 ± 6.2 h in data set [2] (setting [4]). For the same compound, the AUC(0-t) in data set [1] (read-out: AUC(0–24h)) worked out at 199 ± 106 ng·h/mL; in data set [2] (setting [3]) it was 844 ± 202 ng·h/mL; in data set [2] (setting [4]), 1620 ng·h/mL. Further, in data set [2] (Wistar rats, 3 mg/kg, p.o.), the bioavailability entry was “good bioavailability”. In addition, the Kp in data set [2] (male, Wistar Han, brain/plasma, rat, 3 mg/kg oral gavage, mean ± SD, read-out: B/P (brain to plasma ratio)) is 0.49 ± 0.06. In addition, the IC50 at 72 h in the data set “MTT cytotoxicity assay” (HepG2 cells, HepG2, 72 h) is > 60 µM; in “MTT cytotoxicity assay” (NCI-H1299 cells, H1299, 72 h) it was > 60 µM; in “MTT cytotoxicity assay” (SH-SY5Y cells), > 60 µM.

(Values after paper PMC9681820, “A PDE10A inhibitor CPL500036 is a novel agent modulating striatal function devoid of most neuroleptic side-effects” (Frontiers in Pharmacology, 2022).)
